Results published in patent US9328361B2, “Coryneform bacterium transformant and process for producing phenol using the same” (GREEN PHENOL DEVELOPMENT CO., LTD., priority 2010, dated 2016).
Like-named read-outs stand apart in the source and are kept apart here.

Tests used:
[1] = test system: Corynebacterium glutamicum R; details: aerobic culture, A liquid medium, 33° C.
Protocol: A growth inhibition test in aerobic culture was performed to examine the influence of phenol on Corynebacterium glutamicum, Escherichia coli, and Pseudomonas putida. Pseudomonas putida S12, which was used for the test, is reported to be a solvent-resistant strain. In the report, disclosed is an unparalleled technology using the strain as a host in phenol production. […]
The Corynebacterium glutamicum R grown in the above conditions was inoculated into 100 mL of A liquid media in such a way that the initial bacterial cell concentration would be OD610=0.05, phenol was added at the same time in such a way that the final concentration would be 0, 0.16, 0.2, 0.24, or […], and aerobic culture was performed with shaking at 33° C. The growth of bacterial cells was determined by absorbance measurement at OD610.
Pseudomonas putida F1 and S12 grown in the above conditions were each inoculated into 100 mL of LB (+glucose) liquid medium in such a way that the initial bacterial cell concentration would be OD610=0.05, phenol was added at the same time in such a way that the final concentration would be 0, 0.10, or […], and aerobic culture was performed with shaking at 30° C. The growth of bacterial cells was determined by absorbance measurement at OD610. […]

Pseudomonas putida F1 = details: aerobic culture, LB (+glucose) liquid medium, 30° C.
Protocol: (§1) A growth inhibition test in aerobic culture was performed to examine the influence of phenol on Corynebacterium glutamicum, Escherichia coli, and Pseudomonas putida. Pseudomonas putida S12, which was used for the test, is reported to be a solvent-resistant strain. In the report, disclosed is an unparalleled technology using the strain as a host in phenol production.
(§2) Pseudomonas putida F1 and S12 were applied to LB agar medium (1% polypeptone, 0.5% yeast extract, 0.5% NaCl and 1.5% agar) and were left stand in the dark at 30° C. for 15 hours.
(§3) An inoculation loop of each of Pseudomonas putida F1 and S12 was inoculated into a test tube containing 10 mL of LB (+glucose) liquid medium (1% polypeptone, 0.5% yeast extract, 0.5% NaCl and 0.4% glucose), and aerobic culture was performed with shaking at 30° C. for 13 hours.
(§4) Pseudomonas putida F1 and S12 grown in the above conditions were each inoculated into 100 mL of LB (+glucose) liquid medium in such a way that the initial bacterial cell concentration would be OD610=0.05, phenol was added at the same time in such a way that the final concentration would be 0, 0.10, or […], and aerobic culture was performed with shaking at 30° C. The growth of bacterial cells was determined by absorbance measurement at OD610. […] The vertical axis of FIG. 1 indicates OD610.

Pseudomonas putida S12 = details: aerobic culture, LB (+glucose) liquid medium, 30° C.
Protocol: as §1, §2, §3, §4

[2] = test system: Corynebacterium glutamicum R; details: reducing conditions (ORP −450 mV), 8% glucose, 33° C.
Protocol: Corynebacterium glutamicum R was applied to A agar medium and was left stand in the dark at 33° C. for 20 hours.
An inoculation loop of the Corynebacterium glutamicum R grown on a plate as above was inoculated into a test tube containing 10 mL of A liquid medium and was aerobically cultured with shaking at 33° C. for 15 hours.
The Corynebacterium glutamicum R grown in the above conditions was inoculated into a 2 L-conical flask containing 500 mL of A liquid medium and was aerobically cultured with shaking at 33° C. for 15 hours.
The bacterial cells cultured and proliferated as above were collected by centrifugation (5,000×g at 4° C. for 15 minutes). The obtained bacterial cells were suspended in BT (-urea) liquid medium (0.7% ammonium sulfate, 0.05% potassium dihydrogen phosphate, 0.05% dipotassium hydrogen phosphate, 0.05% magnesium sulfate heptahydrate, 0.0006% iron sulfate heptahydrate, 0.00042% manganese sulfate hydrate, 0.00002% biotin and 0.00002% thiamine hydrochloride) so that the concentration of the bacterial cell was 10% (w/v). […] During the reaction, 2.5 N aqueous ammonia was added with the use of a pH controller (Type: DT-1023 made by Able) to avoid the pH of the reaction mixture falling below 7.0.

Escherichia coli JM109 = details: aerobic culture, LB liquid medium, 37° C.
Protocol: as §1
Escherichia coli JM109 was applied to LB agar medium (1% polypeptone, 0.5% yeast extract, 0.5% NaCl and 1.5% agar) and was left stand in the dark at 37° C. for 15 hours.
The growth of bacterial cells was determined by absorbance measurement at OD610.
as §4

For `Oc1ccccc1` [phenol], the “proliferation of Corynebacterium glutamicum” value ([1]; 0.16% phenol) was “hardly affected”, the “proliferation of Corynebacterium glutamicum” value ([1]; 0.20% phenol) was “favorable growth” and the “proliferation of Pseudomonas putida F1” value (Pseudomonas putida F1; 0.10% phenol) was “significantly affected”. The “proliferation of Pseudomonas putida F1” value (Pseudomonas putida F1; 0.20% phenol) was “completely inhibited”, the “proliferation of Pseudomonas putida S12” value (Pseudomonas putida S12; 0.10% phenol) was “significantly affected” and the “proliferation of Pseudomonas putida S12” value (Pseudomonas putida S12; 0.20% phenol) was “completely inhibited”. The “influence on saccharide consumption” value ([2]; 0.24% phenol) was “no influence of phenol was observed”, the saccharide consumption ([2]; 0.38% phenol) was “saccharide consumption was observed” and the saccharide consumption ([2]; 0.46% phenol) was “slightly observed”. For the same compound, the “proliferation of Escherichia coli” value (Escherichia coli JM109; 0.16% phenol) was “significantly affected” and the “proliferation of Escherichia coli” value (Escherichia coli JM109; 0.20% phenol) was “completely inhibited”.
